Values of other authors, collected in patent publication US11304951B1 (Janssen Pharmaceutica NV, priority 2020, dated 2022).

CCCCCCCCCCCCCCCC(=O)OC1CCCn2c1nc(C)c(CCN1CCC(c3noc4cc(F)ccc34)CC1)c2=O (racemic) [paliperidone palmitate, (±)-3-[2-[4-(6-fluoro-1,2-benzisoxazol-3-yl)-1-piperidinyl]ethyl]-6,7,8,9-tetrahydro-2-methyl-4-oxo-4H-pyrido[1,2-c]pyrimidin-9-yl hexadecanoate]
water solubility: extreme low water solubility
